Experimental data published in US10098964B2, “Inclusion complexes and methods for making the same” (The Board of Trustees of the University of Illinois, priority 2015, dated 2018).

How the values were obtained:
[1] = In-vitro fermentation (large intestine): butyrate produced; assay type: in vitro ADME
[2] = cited from earlier work

| SMILES | Butyrate produced, 4 hr ([1]; fermentation 4 hr, representative of ascending large intestine) | Butyrate produced, 8 hr ([1]; fermentation 8 hr, representative of transverse large intestine) | Butyrate produced, 12 hr ([1]; fermentation 12 hr, representative of descending large intestine) | half-life in human plasma [2] [min] |
| --- | --- | --- | --- | --- |
| CCCC(=O)OCC(COC(=O)CCC)OC(=O)CCC [Tributyrin, 1,3-di(butanoyloxy)propan-2-yl butanoate] | 106389.69 µg/g (DMB) | 164605.74 µg/g (DMB) | 134093.05 µg/g (DMB) | – |
| CCCC(=O)O [butyrate, butyric acid] | – | – | – | < 6 |
